Results reported in ChEMBL document CHEMBL3885861, “Open TG-GATES”.

Species on record: Rattus norvegicus
Assay: Open TG-GATES - Regimen: Daily Repeat
Format: toxicity, organism-based, Sprague-Dawley
Set-up: regimen Daily Repeat, gender Male, age 6 weeks
Settings: in vivo, po, 100 mg/kg, route gavage, dose level High; for APTT / Bas / Eos / Fbg / Hb / Ht / Lym / MCH / MCHC / MCV / Mono / Neu / PT / Plat / RBC / Ret / WBC: tissue Blood; for KIDNEY_L / KIDNEY_R / KIDNEY_TOTAL: tissue Kidney; for LIVER: tissue Liver; for A/G / ALP / ALT / AST / BUN / CRE / Ca / Cl / DBIL / GLC / IP / K / LDH / Na / PL / RALB / TBIL / TC / TG / TP / gamma-GTP: tissue Plasma

SMILES: CC1=C(/C=C/C(C)=C/C=C/C(C)=C/CO)C(C)(C)CCC1 [RETINOL]
- TERMINAL_BW (72 h, time 3 day): 214.3 g
- APTT (72 h, time 3 day): 29 s
- Bas (72 h, time 3 day): 0%
- Eos (72 h, time 3 day): 0.4%
- Fbg (72 h, time 3 day): 274.4 mg/dL
- Hb (72 h, time 3 day): 13.8 g/dL
- Ht (72 h, time 3 day): 39.8%
- Lym (72 h, time 3 day): 74.4%
- MCH (72 h, time 3 day): 21 pg
- MCHC (72 h, time 3 day): 34.6%
- MCV (72 h, time 3 day): 60.9 fL
- Mono (72 h, time 3 day): 3.4%
- Neu (72 h, time 3 day): 20.6%
- PT (72 h, time 3 day): 18.1 s
- Plat (72 h, time 3 day): 112.8 x10_4/uL
- RBC (72 h, time 3 day): 654.8 x10_4/ul
- Ret (72 h, time 3 day): 4.3%
- WBC (72 h, time 3 day): 95.3 x10_2/uL
- KIDNEY_L (72 h, time 3 day): 1 g
- KIDNEY_R (72 h, time 3 day): 1 g
- KIDNEY_TOTAL (72 h, time 3 day): 2 g
- LIVER (72 h, time 3 day): 10.3 g
- A/G (72 h, time 3 day): 1.3
- ALP (72 h, time 3 day): 2174.2 IU/L
- ALT (72 h, time 3 day): 52.2 IU/L
- AST (72 h, time 3 day): 83.8 IU/L
- BUN (72 h, time 3 day): 17 mg/dL
- CRE (72 h, time 3 day): 0.1 mg/dL
- Ca (72 h, time 3 day): 11.1 mg/dL
- Cl (72 h, time 3 day): 107 meq/L
- DBIL (72 h, time 3 day): 0.004 mg/dL
- GLC (72 h, time 3 day): 192.2 mg/dL
- IP (72 h, time 3 day): 7.9 mg/dL
- K (72 h, time 3 day): 4.3 meq/L
- LDH (72 h, time 3 day): 241 IU/L
- Na (72 h, time 3 day): 141.8 meq/L
- PL (72 h, time 3 day): 151.2 mg/dL
- RALB (72 h, time 3 day): 3.1 g/dL
- TBIL (72 h, time 3 day): 0.01 mg/dL
- TC (72 h, time 3 day): 70.6 mg/dL
- TG (72 h, time 3 day): 196.2 mg/dL
- TP (72 h, time 3 day): 5.6 g/dL
- gamma-GTP (72 h, time 3 day): 1.4 IU/L
- TERMINAL_BW ([…], time 7 day): 231.5 g
- TERMINAL_BW ([…], time 14 day): 234.2 g
- TERMINAL_BW ([…], time 28 day): 190.7 g
- APTT ([…], time 7 day): 32.7 s
- Bas ([…], time 7 day): 0%
- Eos ([…], time 7 day): 0.2%
- Fbg ([…], time 7 day): 293.8 mg/dL
- Hb ([…], time 7 day): 13.6 g/dL
- Ht ([…], time 7 day): 38.5%
- Lym ([…], time 7 day): 73.2%
- MCH ([…], time 7 day): 21.1 pg
- MCHC ([…], time 7 day): 35.2%
- MCV ([…], time 7 day): 60 fL
- Mono ([…], time 7 day): 2.6%
- Neu ([…], time 7 day): 22.4%
- PT ([…], time 7 day): 16.1 s
- Plat ([…], time 7 day): 114.4 x10_4/uL
- RBC ([…], time 7 day): 642.2 x10_4/ul
- Ret ([…], time 7 day): 2%
- WBC ([…], time 7 day): 102.2 x10_2/uL
- APTT ([…], time 14 day): 43.8 s
- Bas ([…], time 14 day): 0%
- Eos ([…], time 14 day): 0.4%
- Fbg ([…], time 14 day): 373.8 mg/dL
- Hb ([…], time 14 day): 13 g/dL
- Ht ([…], time 14 day): 36.5%
- Lym ([…], time 14 day): 62.8%
- MCH ([…], time 14 day): 20.2 pg
- MCHC ([…], time 14 day): 35.6%
- MCV ([…], time 14 day): 56.6 fL
- Mono ([…], time 14 day): 4.2%
- Neu ([…], time 14 day): 31.8%
- PT ([…], time 14 day): 18.5 s
- Plat ([…], time 14 day): 127.2 x10_4/uL
- RBC ([…], time 14 day): 644.8 x10_4/ul
- Ret ([…], time 14 day): 1.3%
- WBC ([…], time 14 day): 139.1 x10_2/uL
- APTT ([…], time 28 day): 37 s
- Bas ([…], time 28 day): 0%
- Eos ([…], time 28 day): 0.5%
- Fbg ([…], time 28 day): 294 mg/dL
- Hb ([…], time 28 day): 12.1 g/dL
- Ht ([…], time 28 day): 34.3%
- Lym ([…], time 28 day): 60.5%
- MCH ([…], time 28 day): 17.9 pg
- MCHC ([…], time 28 day): 35.2%
- MCV ([…], time 28 day): 50.8 fL
- Mono ([…], time 28 day): 5%
- Neu ([…], time 28 day): 33.5%
- PT ([…], time 28 day): 17.8 s
- Plat ([…], time 28 day): 144.9 x10_4/uL
- RBC ([…], time 28 day): 673 x10_4/ul
- Ret ([…], time 28 day): 2.9%
- WBC ([…], time 28 day): 160.4 x10_2/uL
- KIDNEY_L ([…], time 7 day): 1.1 g
- KIDNEY_R ([…], time 7 day): 1.1 g
- KIDNEY_TOTAL ([…], time 7 day): 2.2 g
- KIDNEY_L ([…], time 14 day): 1.1 g
- KIDNEY_R ([…], time 14 day): 1.1 g
- KIDNEY_TOTAL ([…], time 14 day): 2.2 g
- KIDNEY_L ([…], time 28 day): 1 g
- KIDNEY_R ([…], time 28 day): 1.1 g
- KIDNEY_TOTAL ([…], time 28 day): 2.1 g
- LIVER ([…], time 7 day): 11.9 g
- LIVER ([…], time 14 day): 11.2 g
- LIVER ([…], time 28 day): 9.5 g
- A/G ([…], time 7 day): 1
- ALP ([…], time 7 day): 2413.2 IU/L
- ALT ([…], time 7 day): 47.8 IU/L
- AST ([…], time 7 day): 91.4 IU/L
- BUN ([…], time 7 day): 16.8 mg/dL
- CRE ([…], time 7 day): 0.2 mg/dL
- Ca ([…], time 7 day): 11.5 mg/dL
- Cl ([…], time 7 day): 104.8 meq/L
- DBIL ([…], time 7 day): 0 mg/dL
- GLC ([…], time 7 day): 182.6 mg/dL
- IP ([…], time 7 day): 8.9 mg/dL
- K ([…], time 7 day): 4.3 meq/L
- LDH ([…], time 7 day): 266 IU/L
- Na ([…], time 7 day): 142.6 meq/L
- PL ([…], time 7 day): 162.2 mg/dL
- RALB ([…], time 7 day): 2.8 g/dL
- TBIL ([…], time 7 day): 0.008 mg/dL
- TC ([…], time 7 day): 76.4 mg/dL
- TG ([…], time 7 day): 306.2 mg/dL
- TP ([…], time 7 day): 5.6 g/dL
- gamma-GTP ([…], time 7 day): 1.4 IU/L
- A/G ([…], time 14 day): 0.7
- ALP ([…], time 14 day): 1719.6 IU/L
- ALT ([…], time 14 day): 43.8 IU/L
- AST ([…], time 14 day): 99.6 IU/L
- BUN ([…], time 14 day): 13.6 mg/dL
- CRE ([…], time 14 day): 0.2 mg/dL
- Ca ([…], time 14 day): 11.3 mg/dL
- Cl ([…], time 14 day): 106.2 meq/L
- DBIL ([…], time 14 day): 0 mg/dL
- GLC ([…], time 14 day): 186.6 mg/dL
- IP ([…], time 14 day): 7.7 mg/dL
- K ([…], time 14 day): 4.1 meq/L
- LDH ([…], time 14 day): 212.8 IU/L
- Na ([…], time 14 day): 141.8 meq/L
- PL ([…], time 14 day): 136.2 mg/dL
- RALB ([…], time 14 day): 2.1 g/dL
- TBIL ([…], time 14 day): 0.002 mg/dL
- TC ([…], time 14 day): 67.8 mg/dL
- TG ([…], time 14 day): 151.8 mg/dL
- TP ([…], time 14 day): 5 g/dL
- gamma-GTP ([…], time 14 day): 1.2 IU/L
- A/G ([…], time 28 day): 0.6
- ALP ([…], time 28 day): 1327.7 IU/L
- ALT ([…], time 28 day): 55.3 IU/L
- AST ([…], time 28 day): 166.3 IU/L
- BUN ([…], time 28 day): 52 mg/dL
- CRE ([…], time 28 day): 0.3 mg/dL
- Ca ([…], time 28 day): 10.5 mg/dL
- Cl ([…], time 28 day): 113 meq/L
- DBIL ([…], time 28 day): 0.01 mg/dL
- GLC ([…], time 28 day): 225 mg/dL
- IP ([…], time 28 day): 9.1 mg/dL
- K ([…], time 28 day): 4.1 meq/L
- LDH ([…], time 28 day): 685.3 IU/L
- Na ([…], time 28 day): 148.3 meq/L
- PL ([…], time 28 day): 85 mg/dL
- RALB ([…], time 28 day): 1.7 g/dL
- TBIL ([…], time 28 day): 0.0233 mg/dL
- TC ([…], time 28 day): 43.7 mg/dL
- TG ([…], time 28 day): 57.3 mg/dL
- TP ([…], time 28 day): 4.4 g/dL
- gamma-GTP ([…], time 28 day): 2.3 IU/L
